Values after ≈ are worked out from the molar mass of the structure shown. Like-named read-outs stand apart in the source and are kept apart here. One block for each compound: values may come before it.
Experiments:
Format in all cases: physicochemical
[1] = VTI moisture adsorption/desorption (hygroscopicity); details: for Hygroscopicity assessment in words: VTI, up to 90% RH; for Hygroscopic moisture gain / weight gain at 90% RH (VTI): flow-through VTI, 25 C; for Hygroscopic moisture gain / weight gain at 90% RH (VTI) / Hygroscopicity (by weight) at 90% relative humidity at ambient temperature: 90% RH
Text: The salts and solvates of the present invention can be further characterized by VTI water vapor adsorption to measure hygroscopicity. […] Other methods of analysis are described in more detail in the Examples.
This monobesylate salt of Formula I appeared as fine crystalline particles of moderate to high birefringence with irregularly-shaped morphology. The size of the particles ranged from approximately […] to 50 mm in diameter, with some aggregates up to about 200 mm in diameter. The material was tested using DSC at a heating rate of five degrees/minute, FIG. 1(b). A sharp melting endotherm with onset temperature of 254° C. was observed. Minor front tailing for the endotherm was also noted. The material was tested by TGA at a heating rate of five degrees/minute, FIG. 1(c). No loss in weight was observed up to the melting onset temperature (˜250)° C. […] These solvents were thus likely entrained by the crystal and were not released until melting. […] The dynamic moisture sorption was evaluated using a flow-through VTI apparatus at 25° C. The sample was initially dried at ˜2% RH for maximum of two hours, followed by a moisture adsorption ramp from 10% RH to 90%, then a desorption ramp back down to 10% RH. Initial drying removed 0.08% by weight, followed by a maximum moisture gain of 0.09% at 90% RH. Thus, this complex was non-hygroscopic.
The sample was tested in flow-through VTI with relative humidity ramp from 0 to 90%, then a desorption ramp back down to 10%1 RH at 25 C. […] The monomesylate was analyzed for elemental composition of carbon, hydrogen, nitrogen, fluorine and sulfur. The results from analysis met the stoichiometry of a mono-mesylate salt containing 1% THF.
The hemihydrate tosylate salt of Formula I consisted of fine birefringent aggregated needles and lathes. This sample was crystalline by PXRD. The thermal profile of this sample was obtained by heating from 30-300 C at 5 C/min. […] The volatile content of this sample was obtained by heating from 30-225 C at 5 C/min. The total volatile content was 1.4%, and consisted of water and ethanol by IR. The sample was tested in flow-through VTI with relative humidity ramp from 0 to 90% at 25 C.

pKa in solution = details: weak base
Text: (§1) Solubility increased in acidic media, with a solubility of 1 mgA/ml observed in pH 2 buffer. […] Solubility determined in several common organic solvents, such as ethanol and acetone, was about 200 mgA/ml. The following table summarizes the physical and chemical properties of the monobesylate salt of Formula I: […]

[2] = Solubility in aqueous media and organic solvents
Text: as §1

[3] = Solid-state stability at 70 C/75% RH
Procedure: The monobesylate salt of Formula I (m. wt. 665.67), Form A, was a white crystalline solid with irregularly-shaped particle morphology ranging from approximately […] in diameter. This anhydrous form melted (DSC, Tonset) at 254° C. with decomposition.

[4] = listed as monobesylate salt of Formula I

Hygroscopicity assessment in words [1, 4]: non-hygroscopic
Hygroscopic moisture gain / weight gain at 90% RH (VTI) [1, 4]: 0.09%
pKa (pKa in solution): 4.58
Acetone solubility ([2]; acetone): 206 ugA/ml
Aqueous buffer pH 1.4 solubility ([2]; aqueous buffer pH 1.4): 1162 ugA/ml
Aqueous buffer pH 7 solubility ([2]; aqueous buffer pH 7): 4 ugA/ml
solubility ([2]; aqueous buffer, heading: Solubility in unbuffered water, unbuffered water, pH 2.65): 369 µg/mL (≈ 727 µM)
solubility ([2]; aqueous buffer, pH 2 buffer, read-out: Solubility in pH 2 buffer): 1000 µg/mL (≈ 1970 µM)
solubility ([2]; aqueous media, water, aqueous, above pH 5, read-out: Aqueous solubility above pH 5): ~5000 µg/mL (≈ 9850 µM)
Ethanol solubility ([2]; ethanol): 260 ugA/ml
Solubility in common organic solvents, such as ethanol and acetone ([2]; organic solvents): about 200 mgA/ml
Unbuffered water solubility (pH 2.65) ([2]; unbuffered water, pH 2.65 (table)): 369 ugA/ml
Solid-state stability, 3 weeks at 70 C./75% RH (purity by HPLC area % relative to room temperature control) ([3]; 3 weeks, 70 C/75% RH): >99.9% (purity by HPLC
SMILES: CN(c1ncccc1CNc1nc(Nc2ccc3c(c2)CC(=O)N3)ncc1C(F)(F)F)S(C)(=O)=O [Example 1, N-Methyl-N-(3-{[2-(2-oxo-2,3-dihydro-1H-indol-5-ylamino)-5-trifluoromethyl-pyrimidin-4-ylamino]-methyl}-pyridin-2-yl)-methanesulfonamide]
Solid-state stability in words ([3]; three weeks exposure to 70 C/75% RH): chemically and physically stable in the solid-state

Hygroscopicity (by weight) at 90% relative humidity at ambient temperature [1]: 2.7%
SMILES: CN(c1ncccc1CNc1nc(Nc2ccc3c(c2)CC(=O)N3)ncc1C(F)(F)F)S(C)(=O)=O [Example 5, N-Methyl-N-(3-{[2-(2-oxo-2,3-dihydro-1H-indol-5-ylamino)-5-trifluoromethyl-pyrimidin-4-ylamino]-methyl}-pyridin-2-yl)-methanesulfonamide]

Hygroscopicity (by weight) at 90% relative humidity at ambient temperature [1]: 1.4%
SMILES: CN(c1ncccc1CNc1nc(Nc2ccc3c(c2)CC(=O)N3)ncc1C(F)(F)F)S(C)(=O)=O [Example 6, N-Methyl-N-(3-{[2-(2-oxo-2,3-dihydro-1H-indol-5-ylamino)-5-trifluoromethyl-pyrimidin-4-ylamino]-methyl}-pyridin-2-yl)-methanesulfonamide]

Hygroscopicity (by weight) at 90% relative humidity at ambient temperature [1]: 0.16%
Hygroscopic moisture gain / weight gain at 90% RH (VTI) ([1]; listed as besylate salt of Formula I): 0.16%
SMILES: CN(c1ncccc1CNc1nc(Nc2ccc3c(c2)CC(=O)N3)ncc1C(F)(F)F)S(C)(=O)=O [Example 2, N-Methyl-N-(3-{[2-(2-oxo-2,3-dihydro-1H-indol-5-ylamino)-5-trifluoromethyl-pyrimidin-4-ylamino]-methyl}-pyridin-2-yl)-methanesulfonamide]

Hygroscopicity (by weight) at 90% relative humidity at ambient temperature [1]: 1.4%
Hygroscopicity assessment in words ([1]; listed as monomesylate): kinetically non-hygroscopic
Hygroscopic moisture gain / weight gain at 90% RH (VTI) ([1]; listed as monomesylate): 1.4%
SMILES: CN(c1ncccc1CNc1nc(Nc2ccc3c(c2)CC(=O)N3)ncc1C(F)(F)F)S(C)(=O)=O [Example 3, N-Methyl-N-(3-{[2-(2-oxo-2,3-dihydro-1H-indol-5-ylamino)-5-trifluoromethyl-pyrimidin-4-ylamino]-methyl}-pyridin-2-yl)-methanesulfonamide]

Hygroscopicity (by weight) at 90% relative humidity at ambient temperature [1]: 0.6%
Hygroscopic moisture gain / weight gain at 90% RH (VTI) ([1]; listed as tosylate salt of Formula I): 0.6%
SMILES: CN(c1ncccc1CNc1nc(Nc2ccc3c(c2)CC(=O)N3)ncc1C(F)(F)F)S(C)(=O)=O [Example 4, N-Methyl-N-(3-{[2-(2-oxo-2,3-dihydro-1H-indol-5-ylamino)-5-trifluoromethyl-pyrimidin-4-ylamino]-methyl}-pyridin-2-yl)-methanesulfonamide]

— patent US8722884B2, “Pyrimidine derivatives for the treatment of abnormal cell growth” (Verastem, Inc., priority 2005, dated 2014)
